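1) Cells in 96-well plates. 2) Compound, 48 h, 5 concentrations. 3) Linear interpolation between surrounding doses. 4) Unreached endpoint = highest concentration. Abbreviation: GI50, concentration required for 50% inhibition of growth.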 The source made the active and inactive calls. No stated cut-off is given here; in the data, active = GI50 up to about 1.1 µM and inactive = higher.
How the values were obtained:
Test in all cases: DTP human tumour cell line panel, 48 h
[1] = tested on: A549
[2] = tested on: BT-549
[3] = tested on: EKVX
[4] = tested on: HCC 2998
[5] = tested on: HCT-15
[6] = tested on: HL-60
[7] = tested on: HOP-92
[8] = tested on: IGROV-1
[9] = tested on: K562
[10] = tested on: LOX IMVI
[11] = tested on: MCF7
[12] = tested on: NCI-H522
[13] = tested on: OVCAR-4
[14] = tested on: RPMI-8226
[15] = tested on: RXF 393
[16] = tested on: SF-268
[17] = tested on: SK-MEL-5
[18] = tested on: SK-OV-3
[19] = tested on: SR
[20] = tested on: SW-620

| SMILES | GI50 [1] | GI50 [2] | GI50 [3] | GI50 [4] | GI50 [5] [µM] | GI50 [6] | GI50 [7] | GI50 [8] | GI50 [9] | GI50 [10] | GI50 [11] | GI50 [12] | GI50 [13] | GI50 [14] | GI50 [15] | GI50 [16] | GI50 [17] | GI50 [18] | GI50 [19] | GI50 [20] |
| --- | --- | --- | --- | --- | --- | --- | --- | --- | --- | --- | --- | --- | --- | --- | --- | --- | --- | --- | --- | --- |
| CCOC(=O)NN(C(=O)OCC)C(=C(c1ccccc1)N1CCOCC1)N(NC(=O)OCC)C(=O)OCC | > 100 µM (inactive) | > 100 µM (inactive) | > 100 µM (inactive) | > 100 µM (inactive) | > 100 | > 100 µM (inactive) | > 100 µM (inactive) | > 100 µM (inactive) | > 100 µM (inactive) | > 100 µM (inactive) | > 100 µM (inactive) | > 100 µM (inactive) | > 100 µM (inactive) | > 100 µM (inactive) | > 100 µM (inactive) | > 100 µM (inactive) | > 100 µM (inactive) | > 100 µM (inactive) | > 100 µM (inactive) | > 100 µM (inactive) |
| N/C(=N\Nc1ccc(C(=O)O)cc1)c1cnccn1 | > 100 µM (inactive) | > 100 µM (inactive) | > 100 µM (inactive) | > 100 µM (inactive) | > 100 | < 0.01 µM (active) | > 100 µM (inactive) | > 100 µM (inactive) | > 100 µM (inactive) | > 100 µM (inactive) | > 100 µM (inactive) | > 100 µM (inactive) | > 100 µM (inactive) | > 100 µM (inactive) | > 100 µM (inactive) | > 100 µM (inactive) | > 100 µM (inactive) | > 100 µM (inactive) | > 100 µM (inactive) | > 100 µM (inactive) |
| COc1cc(C2c3[nH]c4ccccc4c3[C@@H](Nc3ccc(C#N)cc3)[C@H]3COC(=O)N23)cc(OC)c1O (stereo not given in full) | 0.113 µM (active) | 0.265 µM (active) | 0.851 µM (active) | 0.239 µM (active) | 1.07 | 0.0399 µM (active) | 0.413 µM (active) | 0.501 µM (active) | 0.181 µM (active) | 0.0962 µM (active) | 0.16 µM (active) | 0.175 µM (active) | 1.84 µM (inactive) | 0.144 µM (active) | 1.16 µM (inactive) | 0.208 µM (active) | 0.132 µM (active) | 0.254 µM (active) | 0.0113 µM (active) | 0.122 µM (active) |
| COC(=O)C(CCC1C=CCC1)/N=C\c1ccccc1 (stereo not given) | 49.9 µM (inactive) | 78.5 µM (inactive) | 44.8 µM (inactive) | 86.3 µM (inactive) | 43.6 | 36.8 µM (inactive) | 67 µM (inactive) | > 100 µM (inactive) | 47.2 µM (inactive) | 76.7 µM (inactive) | 46.8 µM (inactive) | 54.2 µM (inactive) | 54.7 µM (inactive) | 24.5 µM (inactive) | 58.5 µM (inactive) | 99.8 µM (inactive) | 32.1 µM (inactive) | > 100 µM (inactive) | 38.3 µM (inactive) | > 100 µM (inactive) |
| CC(=O)O[C@H]1CC[C@@]2(C)C(=CC[C@H]3[C@@H]4CC[C@H](c5cc(C(F)(F)F)n(C(C)=O)n5)[C@@]4(C)CC[C@@H]32)C1 | 6.11 µM (inactive) | 10.7 µM (inactive) | 7.28 µM (inactive) | 13.6 µM (inactive) | 5.64 | 3.5 µM (inactive) | 1.22 µM (inactive) | 3.84 µM (inactive) | 3.35 µM (inactive) | 7.4 µM (inactive) | 5.87 µM (inactive) | 17.1 µM (inactive) | 3.31 µM (inactive) | 2.8 µM (inactive) | 5.68 µM (inactive) | 24.8 µM (inactive) | 3.45 µM (inactive) | 12.5 µM (inactive) | 3.98 µM (inactive) | 12.9 µM (inactive) |
| O=C(O)c1ccc2c(c1)CC1(C2)Cc2ccccc2C1=O (stereo not given) | > 100 µM (inactive) | > 100 µM (inactive) | > 100 µM (inactive) | > 100 µM (inactive) | > 100 | > 100 µM (inactive) | 25.2 µM (inactive) | > 100 µM (inactive) | > 100 µM (inactive) | > 100 µM (inactive) | > 100 µM (inactive) | > 100 µM (inactive) | > 100 µM (inactive) | > 100 µM (inactive) | > 100 µM (inactive) | > 100 µM (inactive) | > 100 µM (inactive) | > 100 µM (inactive) | > 100 µM (inactive) | > 100 µM (inactive) |
| Cc1ccc(S(=O)(=O)NNC(=O)c2cc(C)ccc2NC(=O)C23CC4CC(CC(C4)C2)C3)cc1 | 29.4 µM (inactive) | > 100 µM (inactive) | 60 µM (inactive) | 30.1 µM (inactive) | 22.7 | 66.8 µM (inactive) | 21.6 µM (inactive) | 12.6 µM (inactive) | > 100 µM (inactive) | > 100 µM (inactive) | 37.2 µM (inactive) | 20.2 µM (inactive) | 27.7 µM (inactive) | > 100 µM (inactive) | 25.4 µM (inactive) | 41.7 µM (inactive) | 61.5 µM (inactive) | 22.6 µM (inactive) | 84.5 µM (inactive) | 92.9 µM (inactive) |
| O=C1c2cccnc2-c2nccc3c2c1nc1ccc(Br)cc13 | 0.188 µM (active) | 0.0337 µM (active) | 0.0948 µM (active) | 0.164 µM (active) | 0.045 | 0.0184 µM (active) | 0.102 µM (active) | 0.038 µM (active) | 0.0238 µM (active) | 0.0221 µM (active) | < 0.0162 µM (active) | 0.0528 µM (active) | 0.061 µM (active) | 0.0347 µM (active) | 0.0184 µM (active) | 0.0242 µM (active) | 0.0247 µM (active) | 0.145 µM (active) | 0.012 µM (active) | 0.0404 µM (active) |
| CC(=O)Nc1ccc2c3c(cc(O)c2c1)N(C(=O)CCCCCCC(=O)Nc1ccc2c4c(cc(O)c2c1)N(C(=O)OC(C)(C)C)CC4CCl)CC3CCl (stereo not given) | 0.195 µM (active) | 0.146 µM (active) | 0.304 µM (active) | 0.0502 µM (active) | 2.64 | < 0.0108 µM (active) | 0.158 µM (active) | 0.0822 µM (active) | 0.117 µM (active) | 0.0391 µM (active) | < 0.01 µM (active) | 0.0387 µM (active) | 0.218 µM (active) | 0.0877 µM (active) | 0.016 µM (active) | 0.0291 µM (active) | 0.0217 µM (active) | 0.0705 µM (active) | < 0.01 µM (active) | 0.0968 µM (active) |
| CCc1c(C)c(C#N)c(=S)n(C2OC(COC(C)=O)C(OC(C)=O)C(OC(C)=O)C2OC(C)=O)c1-c1ccccc1 (stereo not given) | > 31.6 µM (inactive) | 52.1 µM (inactive) | 97.9 µM (inactive) | > 31.6 µM (inactive) | > 31.6 | > 100 µM (inactive) | 22.1 µM (inactive) | 23.7 µM (inactive) | 21.1 µM (inactive) | > 31.6 µM (inactive) | > 31.6 µM (inactive) | 26.1 µM (inactive) | > 31.5 µM (inactive) | 82 µM (inactive) | > 10 µM (inactive) | > 31.6 µM (inactive) | > 31.6 µM (inactive) | > 10 µM (inactive) | > 31.6 µM (inactive) | > 100 µM (inactive) |
